Patent US20260041679A1, “METHOD OF TREATING HYPERTENSION WITH THE ALDOSTERONE SYNTHASE INHIBITOR BAXDROSTAT” (CINCOR PHARMA, INC., priority 2022, published 2026)
Like-named read-outs stand apart in the source and are kept apart here.

Legend:
[1] = human, in vivo, 1000 mg
[2] = TEAEs by MedDRA class
Text: Safety assessments included monitoring of AEs, physical examinations, ECGs, orthostatic vital signs, and clinical laboratory evaluations.

clinical = conditions: human, in vivo; for CL renal: CLR (urine); for Tmax: Tmax (plasma)
[3] = Pharmacokinetics in subjects with varying degrees of renal function (Example 4); format: in vivo, human
Procedure: This phase 1, open-label, single-dose, parallel-group study was designed in accordance with the FDA guidance for the design and analysis of studies that assess the influence of impaired renal function on PK. Subjects were enrolled into three renal function groups defined based on eGFR calculated using the Chronic Kidney Disease Epidemiology Collaboration equation as follows: […]
Control(normal renal function or mild renal impairment:eGFR≥60 mL/min) • Moderate to severe renal impairment (eGFR 15 to 59 mL/min) • Kidney failure (eGFR<15 mL/min, including subjects on dialysis)
All subjects received a single 10 mg dose of baxdrostat in an open-label manner. […] All subjects were required to fast for a minimum of 10 hours prior to baxdrostat administration. They were then dosed at 8:00 AM (±2 hours) with two 5 mg tablets administered with approximately 240 mL of water. Subjects continued fasting for a minimum of 4 hours after dosing. No other medications were permitted within 2 hours prior to dosing and for 2 hours after dosing with baxdrostat. Subjects on dialysis received the study drug on a non-dialysis day. Blood and urine sample collection for PK analysis continued for 7 days and was proceeded by a follow-up phone call 3±1 days after clinic discharge.
Plasma and urine samples were analyzed to measure concentrations of baxdrostat and its primary metabolite (baxdrostat-M) using a validated LC-MS/MS method. “Baxdrostat-M” as used herein refers a compound having the following structure:
Blood and urine samples were collected prior to and after dosing for measurement of plasma and urine baxdrostat and baxdrostat-M concentrations to characterize maximum observed plasma concentration (Cmax), time to Cmax (Tmax), AUC0-last, and AUC0-inf for baxdrostat and baxdrostat-M. The t1/2, CL/F, and V/F were calculated for plasma baxdrostat only. Urine PK parameters included the cumulative amount of baxdrostat and baxdrostat-M excreted in urine (Ae), renal clearance (CLR) of baxdrostat and baxdrostat-M, and fraction of dose excreted renally (Fe) for baxdrostat.

[4] = Plasma PK of baxdrostat and baxdrostat-M in the metformin crossover study (Example 6A); format: in vivo, human; conditions: single 10-mg dose of baxdrostat; for AUC(0-t) / Cmax / Tmax: human
Procedure: This study was designed as a phase 1, randomized, open-label, 2-period, crossover trial. Each subject participated in a screening period of up to 26 days followed by 2 inpatient treatment periods and a follow-up phone call. […] Plasma samples were extracted by protein precipitation with methanol, followed by analysis by LC-MS/MS with ESI(+) and MRM. Reversed-phase chromatographic separation with a mobile phase gradient of 20% to 90% was utilized, and total run time was approximately 5 minutes. […] PK parameters were calculated using noncompartmental methods with SAS software, version 9.4 (SAS Institute). […] Tmax; […] AUC0-t; AUC0-inf, AUC0-inf extrapolated; λz; and t1/2. Plasma AUC0-72 was assessed only for baxdrostat and baxdrostat-M. […] Urine PK parameters included Ae, renal clearance (calculated as Ae/AUC), and the fraction of dose excreted renally.

[5] = PATHWAY-2 study; cited from earlier work

For CN(C)C(=N)N=C(N)N [Metformin, metformin], the “AUC0-inf (plasma), GM” value [1] was 11,087.78 h · ng/mL, the “AUC0-inf (plasma), Mean” value [1] was 11,224.76 h · ng/mL and the “AUC0-t (plasma), GM” value [1] was 11,024.21 h · ng/mL. For the same compound, the “AUC0-t (plasma), Mean” value [1] was 11,158.75 h · ng/mL, the “Cmax (plasma), GM” value [1] was 1732.62 ng/mL and the “Cmax (plasma), Mean” value [1] was 1765.39 ng/mL. The “Abdominal pain upper, No. (%)” value [2] was 1 (3.8) No. (%), the “Burns first degree, No. (%)” value [2] was 1 (3.8) No. (%) and the “Diarrhea, No. (%)” value [2] was 3 (11.5) No. (%). The “Dizziness postural, No. (%)” value [2] was 0 (0.0) No. (%), the “Flatulence, No. (%)” value [2] was 0 (0.0) No. (%) and the “Gastrointestinal disorders, No. (%)” value [2] was 4 (15.4) No. (%). For the same compound, the “General disorders and administration site conditions, No. (%)” value [2] was 0 (0.0) No. (%), the “Injury, poisoning, and procedural complications, No. (%)” value [2] was 1 (3.8) No. (%) and the “Nausea, No. (%)” value [2] was 1 (3.8) No. (%). The “Nervous system disorders, No. (%)” value [2] was 0 (0.0) No. (%), the “Presyncope, No. (%)” value [2] was 0 (0.0) No. (%) and the “Vessel puncture site pain, No. (%)” value [2] was 0 (0.0) No. (%). The “Diarrhea, No. (%)” value ([2]; listed as metformin) was 3 (11.5%) No. (%), the CL renal (clinical; 1000 mg, GM) was 460 mL/min and the CL renal (clinical; 1000 mg, Mean) was 466 mL/min. It also gave a Tmax (clinical; 1000 mg, Mean (SD)) of 2.14 h, a CL renal (clinical; GM) of 430 mL/min and a CL renal (clinical; Mean) of 441 mL/min. The Tmax (clinical; GM (CV %)) was 1.92 h and the Tmax (clinical; Mean (SD)) was 2.04 h.

For CN1C(=O)CCc2cc(-c3cncc4c3CCCC4O)ccc21 (stereo not drawn) [baxdrostat-M], the Tmax ([3]; human, plasma, oral, 10 mg, all renal function groups, after single 10 mg baxdrostat, read-out: Tmax) was about 22 h, the “plasma concentration-time curves vs control” value ([3]; moderate to severe renal impairment and kidney failure groups) was “qualitatively similar to the control group” and the AUC(0-t) ([4]; read-out: AUC0-24, GM) was 103 ng·h/mL. The AUC(0-t) ([4]; read-out: AUC0-24, Mean) was 111 ng·h/mL, the AUC(0-t) ([4]; read-out: AUC0-72, GM) was 248 ng·h/mL and the AUC(0-t) ([4]; read-out: AUC0-72, Mean) was 264 ng·h/mL. The Cmax ([4]; read-out: Cmax, GM) was 6.16 ng/mL, the Cmax ([4]; read-out: Cmax, Mean) was 6.72 ng/mL and the Tmax ([4]; read-out: Tmax, GM) was 12.4 h. The Tmax ([4]; read-out: Tmax, Mean) was 15.7 h, the “λz, GM” value [4] was 0.030 h⁻¹ and the “λz, Mean” value [4] was 0.030 h⁻¹.

For CC(=O)S[C@@H]1CC2=CC(=O)CC[C@]2(C)[C@H]2CC[C@@]3(C)[C@@H](CC[C@@]34CCC(=O)O4)[C@H]12 [spironolactone], the rate of hyperkalemia [5] is given as 2.1%.
